The source of these data is patent US20180243211A1, “A PHARMACEUTICAL COMPOSITION FOR REDUCING LOCAL FAT AND USES THEREOF” (Caliway Biopharmaceuticals Co., Ltd., priority 2015, published 2018).

Experiment [1] relates to mature adipocytes (differentiated 3T3-L1 cells). Nature of the experiment: Experiment 9-2: apoptosis of mature adipocytes (annexin V/PI flow cytometry), resveratrol with lipophilic drugs. Conditions: 50 ppm total drug (complexes 20 ppm resveratrol + 30 ppm second drug), 24 hours; DMSO control 4.9±2.5%. Type of experiment: cell-based. As to the method: A DMSO control group cell culture medium, a resveratrol cell culture medium, a puerarin cell culture medium, a quercetin cell culture medium, a resveratrol-puerarin complex cell culture medium, and a resveratrol-quercetin complex cell culture medium were prepared as follows: The DMSO control group cell culture medium: DMSO was mixed with an appropriate amount of sterile water to obtain a 0.5% DMSO solution. The 0.5% DMSO solution was mixed with a cell culture medium (product name: Dulbecco's Modified Eagle Medium, purchased from Gibco) to prepare the DMSO control group cell culture medium, wherein, the volume ratio between the 0.5% DMSO solution and the cell culture medium is 1:1000. The resveratrol cell culture medium: resveratrol was mixed with an appropriate amount of 0.5% DMSO solution to obtain a resveratrol solution. The resveratrol solution was mixed with a cell culture medium (product name: Dulbecco's Modified Eagle Medium, purchased from Gibco) to prepare the resveratrol cell culture medium containing 50 ppm of resveratrol, wherein, the volume ratio between the resveratrol solution and the cell culture medium is 1:1000. The puerarin cell culture medium: puerarin (purchased from Sigma-Aldrich) was mixed with an appropriate amount of 0.5% DMSO solution to obtain a puerarin solution. The puerarin solution was mixed with a cell culture medium to prepare the puerarin cell culture medium containing 50 ppm of puerarin, wherein, the volume ratio between the puerarin solution and the cell culture medium is 1:1000. The quercetin cell culture medium: quercetin (purchased from Sigma-Aldrich) was mixed with an appropriate amount of 0.5% DMSO solution to obtain a quercetin solution. […] Annexin V protein (purchased from eBioscience) and propidium iodide (PI; purchased from eBioscience) were mixed with the cells in each group for a period of time, and then the percentage of cells labeled by annexin V protein and PI in each group was analyzed by flow cytometry to assess the percentage of mature adipocytes undergoing apoptosis. […]
On the technique in general: A flow cytometer gives signals particle by particle.

The test system is the same in experiment [2]. Nature of the experiment: Experiment 10-2: apoptosis of mature adipocytes (annexin V/PI flow cytometry), resveratrol with hydrophilic drugs. Format: cell-based. Conditions: 50 ppm total drug (complexes 20 ppm resveratrol + 30 ppm second drug), 24 hours; sterile water control 9.6±1.5%. As to the method: A sterile water control group cell culture medium, a resveratrol cell culture medium, a caffeine cell culture medium, a L-carnitine cell culture medium, a resveratrol-caffeine complex cell culture medium, and a resveratrol-L-carnitine complex cell culture medium were prepared as follows: The sterile water control group cell culture medium: Sterile water was mixed with a cell culture medium to prepare the sterile water control group cell culture medium, wherein, the volume ratio between the sterile water and the cell culture medium is 1:1000. The resveratrol cell culture medium: it is the same method as the preparation of the resveratrol cell culture medium in Experiment 9-2. The caffeine cell culture medium: caffeine (purchased from Sigma-Aldrich) was mixed with an appropriate amount of sterile water to obtain a caffeine solution. The caffeine solution was mixed with a cell culture medium to prepare the caffeine cell culture medium containing 50 ppm of caffeine, wherein, the volume ratio between the caffeine solution and the cell culture medium is 1:1000. The L-carnitine cell culture medium: L-carnitine (purchased from Sigma-Aldrich) was mixed with an appropriate amount of sterile water to obtain a L-carnitine solution. The L-carnitine solution was mixed with a cell culture medium to prepare the L-carnitine cell culture medium containing 50 ppm of L-carnitine, wherein, the volume ratio between the L-carnitine solution and the cell culture medium is 1:1000. The resveratrol-caffeine complex cell culture medium: resveratrol, caffeine, and an appropriate amount of sterile water were mixed to obtain a resveratrol-caffeine complex solution. […] Annexin V protein (purchased from eBioscience) and propidium iodide (PI; purchased from eBioscience) were mixed with the cells in each group for a period of time, and then the percentage of cells labeled by annexin V protein and PI in each group was analyzed by flow cytometry to assess the percentage of mature adipocytes undergoing apoptosis.

`O=c1c(O)c(-c2ccc(O)c(O)c2)oc2cc(O)cc(O)c12` [quercetin]: the “percentage of apoptotic cells” value in experiment [1] stood at 5.9±2.6%. Regarding `Cn1c(=O)c2c(ncn2C)n(C)c1=O` [caffeine], the “percentage of apoptotic cells” value in experiment [2] is listed as 6.9±1.1%. Consider `C[N+](C)(C)C[C@H](O)CC(=O)[O-]` [L-carnitine], for which the “percentage of apoptotic cells” value in experiment [2] amounted to 5.2±1.2%.

In the case of `O=c1c(-c2ccc(O)cc2)coc2c([C@@H]3O[C@H](CO)[C@@H](O)[C@H](O)[C@H]3O)c(O)ccc12` [puerarin], the “percentage of apoptotic cells” value in experiment [1] is 7.2±3.7%. As to `Oc1ccc(C=Cc2cc(O)cc(O)c2)cc1` [resveratrol], the “percentage of apoptotic cells” value in experiment [1] came to 19.1±1.1%; in experiment [2] it was 19.0±1.1%.
